From patent US20030212121A1, “Substituted N-(1,4,5,6-tetrahydro-cyclopentapyrazol-3-yl) derivatives, their production and use as pharmaceutical agents” (priority 2001, published 2003)

SMILES	melting point [°C]
COc1cccc(-c2ccc(CC(=O)Nc3n[nH]c4c3CCC4)cc2)c1 [Example 1.5]	110 to 114
O=C(Cc1ccc(-c2cccc(F)c2)cc1)Nc1n[nH]c2c1CCC2 [Example 1.0, 2-(3′-Fluoro-biphenyl-4-yl)-N-(1,4,5,6-tetrahydro-cyclopentapyrazol-3-yl)-acetamide]	180 to 181
COc1ccccc1-c1ccc(CC(=O)Nc2n[nH]c3c2CCC3)cc1 [Example 1.4]	150
O=C(Cc1ccc(-c2ccc(F)cc2)cc1)Nc1n[nH]c2c1CCC2 [Example 1.2]	161 to 163
O=C(Cc1ccc(-c2ccccc2F)cc1)Nc1n[nH]c2c1CCC2 [Example 1.3]	179 to 181

The remaining lines, values ahead:

melting point [°C]	SMILES
112 to 114	CC(=O)c1ccc(-c2ccc(CC(=O)Nc3n[nH]c4c3CCC4)cc2)cc1 [Example 1.8]
168 to 172	COc1ccc(-c2ccc(CC(=O)Nc3n[nH]c4c3CCC4)cc2)cc1 [Example 1.6]
150	CC(=O)c1cccc(-c2ccc(CC(=O)Nc3n[nH]c4c3CCC4)cc2)c1 [Example 1.7]
